Tests used:
Staphylococcus aureus [1] = assay: Antibacterial activity against methicillin-resistant Staphylococcus aureus; assay type: functional
Staphylococcus aureus [2] = assay: Antibacterial activity against multidrug-resistant Staphylococcus aureus; assay type: functional

Compound	MIC (Staphylococcus aureus [1]) [µg/mL]	MIC (Staphylococcus aureus [2]) [µg/mL]
C=C[C@@H](O)C#CC#C[C@H](O)CCO	> 128	> 128
CC1=C2[C@H](O)[C@H](C(C)C)CC[C@@]2(C)[C@H](O)C[C@H]1O (relative stereo)	> 128	> 128

— ChEMBL document CHEMBL1151216, “New constituents of Artemisia monosperma” (2004)
